Earlier results on three molecules are cited in article PMC10846240, “Pharmacokinetic/pharmacodynamic integration of amphenmulin: a novel pleuromutilin derivative against Mycoplasma gallisepticum” (Microbiology Spectrum, 2023).

≈ marks a conversion by molar mass, not a printed value.

One data set relates to Streptococcus pneumoniae. Details: method as in PMID 30019769. The settings on record: neutropenic murine thigh and lung infection model; cited from earlier work.
Details of data set [1]: method as in PMID 26747098. The settings on record: after intravenous injection; cited from earlier work.
In a further data set the test system is Staphylococcus aureus. Details: method as in PMID 30019769. To be noted: neutropenic murine thigh and lung infection model; cited from earlier work.
Data set [2] concerns M. gallisepticum S6 strain. Details: method as in PMID 27656647. To be noted: same strain (S6); cited from earlier work.
Another data set concerns M. gallisepticum. Details: method as in PMID 27656647, PMID 25845865. The settings on record: intratracheal infection model; cited from earlier work.

For `C=C[C@]1(C)C[C@@H](OC(=O)CS[C@@H]2CC[C@@H](N)C[C@H]2O)[C@]2(C)[C@H](C)CC[C@]3(CCC(=O)[C@H]32)[C@@H](C)[C@@H]1O` [lefamulin], the character of activity result with Streptococcus pneumoniae is “time- and concentration-dependent activity”; in the data set on Staphylococcus aureus it was “time- and concentration-dependent activity”. Besides, the “free drug concentration in pulmonary epithelial lining fluid relative to plasma” value in data set [1] is listed as 5.7 times.

Broadly, the MIC is the lowest concentration that inhibits growth of the organism. On to `C=C[C@]1(C)C[C@@H](OC(=O)CSCCN(CC)CC)[C@]2(C)[C@H](C)CC[C@]3(CCC(=O)[C@H]32)[C@@H](C)[C@@H]1O` [tiamulin], for which the minimum inhibitory concentration (MIC) in data set [2] is reported as 0.03 µg/mL (≈ 0.0608 µM). For the same molecule, in the data set with M. gallisepticum, the optimized therapeutic dosages is listed as 45 mg/kg and the “parameter most relevant to anti-mycoplasma effect” value was “AUC/MIC”.

As for `C=C[C@]1(C)C[C@@H](OC(=O)CSC(C)(C)CNC(=O)[C@H](N)C(C)C)[C@]2(C)[C@H](C)CC[C@]3(CCC(=O)[C@H]32)[C@@H](C)[C@@H]1O` [valnemulin], in the data set on M. gallisepticum, the optimized therapeutic dosages is recorded as 6.5 mg/kg and the “parameter most relevant to anti-mycoplasma effect” value is “AUC/MIC”.
